Kb data for 22 compounds are collected here from patent US8133909B2 (Hoffmann-La Roche Inc., priority 2008, dated 2012).

As usually defined, the Kb is the affinity of an antagonist, worked out from how it opposes an agonist.

For this experiment, the target named is T1, human orexin-2 (hOX2) receptors (Homo sapiens, UniProt O43614).
T1 construct: expressed in transfected cells
T1 sequence (O43614 1-444): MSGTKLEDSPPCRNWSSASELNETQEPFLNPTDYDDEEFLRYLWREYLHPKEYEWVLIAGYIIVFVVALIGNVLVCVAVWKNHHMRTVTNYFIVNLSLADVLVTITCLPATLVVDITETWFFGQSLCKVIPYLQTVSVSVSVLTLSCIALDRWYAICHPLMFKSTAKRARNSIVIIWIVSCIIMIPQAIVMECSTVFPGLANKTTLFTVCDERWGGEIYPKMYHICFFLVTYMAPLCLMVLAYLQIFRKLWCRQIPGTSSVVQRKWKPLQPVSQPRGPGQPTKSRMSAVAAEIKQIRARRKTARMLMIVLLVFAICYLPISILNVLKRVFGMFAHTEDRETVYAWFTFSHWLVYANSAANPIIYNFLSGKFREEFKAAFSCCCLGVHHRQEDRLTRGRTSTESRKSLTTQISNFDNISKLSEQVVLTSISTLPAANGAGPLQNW
Briefly: Intracellular Ca2+ mobilization assay (FLIPR), antagonism of orexin-A. The conditions noted are these: CHO(dHFr-) cells stably expressing hOX2; orexin-A at EC80 as agonist; antagonist applied 25 min before; Kb=IC50/(1+[A]/EC50); read-out: Kb (μM) OX2R (human). Type of experiment: cell-based. As for the experimental part:
Intracellular Ca^2+ Mobilization Assay
The Chinese Hamster Ovary (dHFr—) mutant cell line stably expressing human orexin-1 (hOX1) or human orexin-2 (hOX2) receptors were maintained in Dulbecco's Modified Eagle Medium (1X) with GlutaMax™ 1, 4500 mg/L D-Glucose and Sodium Pyruvate (Catalog No. 31966-021, Invitrogen, Carlsbad, Calif.), 5% dialyzed fetal calf serum (Catalog No. 26400-044), 100 μg/ml penicillin and 100 μg/ml streptomycin. The cells were seeded at 5×10^4 cells/well in the poly-D-lysine treated, 96-well, black/clear-bottomed plates (Catalog No. BD356640, BD Biosciences, Palo Alto, Calif.). 24 h later, the cells were loaded for 1 h at 37° C. with 4 μM Flou-4 acetoxymethyl ester (Catalog No. F-14202, Molecular Probes, Eugene, Oreg.) in FLIPR buffer (1×HBSS, 20 mM HEPES, 2.5 mM Probenecid). Hanks' Balanced Salt Solution (HBSS) (10×) (catalog No. 14065-049) and HEPES (1M) (catalog No. 15630-056) were purchased from Invitrogen, Carlsbad, Calif. Probenecid (250 mM) (catalog No. P8761) was from Sigma, Buchs, Switzerland. The cells were washed five times with FLIPR buffer to remove excess dye and intracellular calcium mobilization, [Ca^2+]i were measured using a Fluorometric Imaging Plate Reader (FLIPR-96, Molecular Devices, Menlo Park, Calif.) as described previously (Malherbe et al., Mol. Pharmacol., 64, 823-832, 2003). Orexin A (catalog No. 1455, Toris Cookson Ltd, Bristol, UK) was used as agonist. Orexin A (50 mM stock solution in DMSO) was diluted in FLIPR buffer +0.1% BSA. The EC50 and EC80 values of orexin-A were measured daily from standard agonist concentration-response curves in CHO(dHFr—)—OX1R and —OX2R cell lines. All compounds were dissolved in 100% DMSO. Inhibition curves were determined by addition of 11 concentrations (0.0001-10 μM) of inhibitory compounds and using EC80 value of orexin-A as agonist (a concentration which gave 80% of max agonist response, determined daily). The antagonists were applied 25 min (incubation at 37° C.) before the application of the agonist. Responses were measured as peak increase in fluorescence minus basal, normalized to the maximal stimulatory effect induced by EC80 value of orexin-A or orexin- B. Inhibition curves were fitted according to the Hill equation: y=100/(1+(x/IC50)^nH), where nH=slope factor using Excel-fit 4 software (Microsoft). Kb values were calculated according to the following equation Kb=IC50/(1+[A]/EC50) where A is the concentration of agonist added which is very close to agonist EC80 value, and IC50 and EC50 values were derived from the antagonist inhibition and orexin-A or B agonist curves, respectively.
In general terms: Calcium assays in cells follow changes in intracellular calcium, usually with a dye or a luminescent sensor.
Take `Cc1ccc(N(CCc2ccc(C(F)(F)F)nc2)C(=O)C(C)(O)c2ccccc2)cc1C` (racemic) [Example 27, (R,S)—N-(3,4-Dimethyl-phenyl)-2-hydroxy-2-phenyl-N-[2-(6-trifluoromethyl-pyridin-3-yl)-ethyl]-propionamide]: the Kb came to 0.068 µM.
The value for `Cc1ccc(CCN(C(=O)C(N)c2ccc(Cl)cc2)c2sc(C)nc2C)cc1` (racemic) [Example 32, (R,S)-2-Amino-2-(4-chloro-phenyl)-N-(2,4-dimethyl-thiazol-5-yl)-N-(2-p-tolyl-ethyl)-acetamide] was 0.0943 µM; that for `COc1ccc(N(CCc2ccc(C(F)(F)F)cc2)C(=O)C(N)c2ccccc2)cn1` (racemic) [Example 36, (R,S)-2-Amino-N-(6-methoxy-pyridin-3-yl)-2-phenyl-N-[2-(4-trifluoromethyl-phenyl)-ethyl]-acetamide] was 0.061 µM.
In the case of `Cc1cc(N(CCc2ccc(C(F)(F)F)cc2)C(=O)C(N)c2ccc(Cl)cc2)n(C)n1` (racemic) [Example 39, (R,S)-2-Amino-2-(4-chloro-phenyl)-N-(2,5-dimethyl-2H-pyrazol-3-yl)-N-[2-(4-trifluoromethyl-phenyl)-ethyl]-acetamide], the Kb amounted to 0.0439 µM.
`Cc1cc(N(CCc2ccc(C(F)(F)F)cc2)C(=O)C(O)c2ccccc2)n(C)n1` (racemic) [Example 42, (R,S)—N-(2,5-Dimethyl-2H-pyrazol-3-yl)-2-hydroxy-2-phenyl-N-[2-(4-trifluoromethyl-phenyl)-ethyl]-acetamide]: the Kb stood at 0.0785 µM.
Under `Cn1ccc2ccc(N(CCc3ccc(C(F)(F)F)cn3)C(=O)C(O)c3ccc(F)cc3)cc21` (racemic) [Example 54, (R,S)-2-(4-Fluoro-phenyl)-2-hydroxy-N-(1-methyl-1H-indol-6-yl)-N-[2-(5-trifluoromethyl-pyridin-2-yl)-ethyl]-acetamide] stands 0.0078 µM.
The value for `O=C([C@H](O)c1ccc(F)cc1)N(CCc1ccc(C(F)(F)F)cn1)c1ccc2c(c1)CCC2` (racemic) [Example 73, (R,S)-2-(4-Fluoro-phenyl)-2-hydroxy-N-indan-5-yl-N-[2-(5-trifluoromethyl-pyridin-2-yl)-ethyl]-acetamide] was 0.0313 µM.
The value for `O=C(C(O)c1ccc(F)cc1)N(CCc1ccc(C(F)(F)F)cn1)c1ccc2c(c1)CCO2` (racemic) [Example 75, (R,S)—N-(2,3-Dihydro-benzofuran-5-yl)-2-(4-fluoro-phenyl)-2-hydroxy-N-[2-(5-trifluoromethyl-pyridin-2-yl)-ethyl]-acetamide] was 0.013 µM; that for `COc1cccc(N(CCc2ccc(C(F)(F)F)cn2)C(=O)C(O)c2ccc(F)cc2)c1` (racemic) [Example 76, (R,S)-2-(4-Fluoro-phenyl)-2-hydroxy-N-(3-methoxy-phenyl)-N-[2-(5-trifluoromethyl-pyridin-2-yl)-ethyl]-acetamide] was 0.026 µM.
For the compound `Cc1cc(N(CCc2ccc(C(F)(F)F)cn2)C(=O)C(O)c2ccc(F)cc2)ccc1F` (racemic) [Example 77, (R,S)—N-(4-Fluoro-3-methyl-phenyl)-2-(4-fluoro-phenyl)-2-hydroxy-N-[2-(5-trifluoromethyl-pyridin-2-yl)-ethyl]-acetamide], the Kb was 0.0075 µM.
Under `Cc1ccc(N(CCc2ccc(C(F)(F)F)cn2)C(=O)C(O)c2ccc(F)cc2)cc1F` (racemic) [Example 78, (R,S)—N-(3-Fluoro-4-methyl-phenyl)-2-(4-fluoro-phenyl)-2-hydroxy-N-[2-(5-trifluoromethyl-pyridin-2-yl)-ethyl]-acetamide] stands 0.0481 µM; under `COc1cc(N(CCc2ccc(C(F)(F)F)cn2)C(=O)C(O)c2ccc(F)cc2)ccc1Cl` (racemic) [Example 79, (R,S)—N-(4-Chloro-3-methoxy-phenyl)-2-(4-fluoro-phenyl)-2-hydroxy-N-[2-(5-trifluoromethyl-pyridin-2-yl)-ethyl]-acetamide], 0.0236 µM.
The value for `COc1cc(N(CCc2ccc(C(F)(F)F)cn2)C(=O)C(O)c2ccc(F)cc2)ccc1F` (racemic) [Example 88, (R,S)—N-(4-Fluoro-3-methoxy-phenyl)-2-(4-fluoro-phenyl)-2-hydroxy-N-[2-(5-trifluoromethyl-pyridin-2-yl)-ethyl]-acetamide] was 0.0106 µM; that for `O=C(C(O)c1ccc(F)cc1)N(CCc1ccc(C(F)(F)F)cn1)c1ccc(F)c(CO)c1` (racemic) [Example 90, (R,S)—N-(4-Fluoro-3-hydroxymethyl-phenyl)-2-(4-fluoro-phenyl)-2-hydroxy-N-[2-(5-trifluoromethyl-pyridin-2-yl)-ethyl]-acetamide] was 0.0438 µM; that for `COc1ccc(N(CCc2ccc(C(F)(F)F)cn2)C(=O)C(O)c2ccc(F)cc2)cc1C` (racemic) [Example 93, (R,S)-2-(4-Fluoro-phenyl)-2-hydroxy-N-(4-methoxy-3-methyl-phenyl)-N-[2-(5-trifluoromethyl-pyridin-2-yl)-ethyl]-acetamide] was 0.0146 µM.
Under `Cc1ccc(N(CCc2ccc(C(F)(F)F)cn2)C(=O)C(O)c2ccc(F)cc2)cc1OC(F)F` (racemic) [Example 95, (R,S)-N-(3-Difluoromethoxy-4-methyl-phenyl)-2-(4-fluoro-phenyl)-2-hydroxy-N-[2-(5-trifluoromethyl-pyridin-2-yl)-ethyl]-acetamide] stands 0.0195 µM; under `O=C(C(O)c1ccc(F)cc1)N(CCc1ccc(C(F)(F)F)cn1)c1ccc(OC(F)F)c(OC(F)F)c1` (racemic) [Example 96, (R,S)—N-(3,4-Bis-difluoromethoxy-phenyl)-2-(4-fluoro-phenyl)-2-hydroxy-N-[2-(5-trifluoromethyl-pyridin-2-yl)-ethyl]-acetamide], 0.0216 µM; under `CCc1cc(N(CCc2ccc(C(F)(F)F)cn2)C(=O)C(O)c2ccc(F)cc2)ccc1Cl` (racemic) [Example 97, (R,S)-N-(4-Chloro-3-ethyl-phenyl)-2-(4-fluoro-phenyl)-2-hydroxy-N-[2-(5-trifluoromethyl-pyridin-2-yl)-ethyl]-acetamide], 0.0276 µM.
For the compound `O=C(C(O)c1ccc(F)cc1)N(CCc1ccc(C(F)(F)F)cn1)c1ccc(Cl)c(CO)c1` (racemic) [Example 98, (R,S)—N-(4-Chloro-3-hydroxymethyl-phenyl)-2-(4-fluoro-phenyl)-2-hydroxy-N-[2-(5-trifluoromethyl-pyridin-2-yl)-ethyl]-acetamide], the Kb amounted to 0.0216 µM.
Turning to `COC(=O)c1cc(N(CCc2ccc(C(F)(F)F)cn2)C(=O)C(O)c2ccc(F)cc2)ccc1Cl` (racemic) [Example 99, (R,S)-2-Chloro-5-{[2-(4-fluoro-phenyl)-2-hydroxy-acetyl]-[2-(5-trifluoromethyl-pyridin-2-yl)-ethyl]-amino}-benzoic acid methyl ester], the Kb was 0.0285 µM.
The value for `O=C(C(O)c1ccc(F)cc1)N(CCc1ccc(C(F)(F)F)cn1)c1ccc(Cl)c(OC2CC2)c1` (racemic) [Example 103, (R,S)—N-(4-Chloro-3-cyclopropoxy-phenyl)-2-(4-fluoro-phenyl)-2-hydroxy-N-[2-(5-trifluoromethyl-pyridin-2-yl)-ethyl]-acetamide] was 0.0239 µM; that for `O=C([C@@H](O)c1ccc(F)cc1)N(CCc1ccc(C(F)(F)F)nc1)c1ccc2c(c1)C(O)CCO2` (single isomer, unassigned) [Example 101, (S)-2-(4-Fluoro-phenyl)-2-hydroxy-N—((R or S)-4-hydroxy-chroman-6-yl)-N-[2-(6-trifluoromethyl-pyridin-3-yl)-ethyl]-acetamide] was 0.0116 µM.
